Columns and labels:
Assay in all cases: CTG-3D luminescence at 96 h relative to day-0 seeding control (ratio to day 0); higher = more growth / less cytotoxicity; PDxO 3D drug screen, 96 h, CTG-3D normalised to day-0 seeding control.
HCI-011.E2 = tested on: HCI-011.E2 (organoid from an ER-positive breast cancer xenograft)
HCI-012 = tested on: HCI-012 (organoid from a breast cancer xenograft)
HCI-008 = tested on: HCI-008 (organoid from a HER2-enriched breast cancer xenograft)
HCI-005.E2 = tested on: HCI-005.E2 (organoid from a breast cancer xenograft with a HER2-positive history)
HCI-010 = tested on: HCI-010 (organoid from a breast cancer xenograft)
HCI-015 = tested on: HCI-015 (organoid from a triple-negative breast cancer xenograft)
HCI-019 = tested on: HCI-019 (organoid from a triple-negative breast cancer xenograft)

NC(=O)c1cccc2cn(-c3ccc([C@@H]4CCCNC4)cc3)nc12 [niraparib]
CTG-3D luminescence at 96 h
Settings | 12.5 pM | 0.00025 µM | 0.005 µM | 0.1 µM | 1 µM | 10 µM | 100 µM | 625 fM
HCI-005.E2 | 1.22 | 1.61 | 1.3 | 1.62 | 1.51 | 1.05 | -0.00126 | 1.35
HCI-011.E2 | 1.33 | 1.59 | 1.3 | 1.76 | 1.7 | 1.55 | 0.00155 | 1.465

CTG-3D luminescence at 96 h
Settings | 12.5 pM | 0.00025 µM | 0.005 µM | 0.1 µM | 1 µM | 10 µM | 100 µM | 625 fM
HCI-008, days in culture: 228 | 1.87 | 1.97 | 1.45 | 1.55 | 1.34 | 0.828 | 0.00065 | 1.72
HCI-008, days in culture: 244 | 1.42 | 1.98 | 1.91 | 2.31 | 1.77 | 1.17 | -0.000168 | 2.42
HCI-010, days in culture: 52 | 1.94 | 2.41 | 2.17 | 2.55 | 2.02 | 0.332 | 0.006 | 2.06
HCI-010, days in culture: 65 | 1.44 | 1.78 | 1.88 | 1.63 | 1.54 | 0.382 | 0.000688 | 1.62
HCI-010, days in culture: 103 | 3.06 | 3.18 | 3.13 | 3.19 | 2.67 | 0.397 | 0.00829 | 2.94
HCI-011.E2, days in culture: 74 | 1.93 | 2.01 | 1.98 | 1.97 | 1.88 | 2.89 | 0.00301 | 1.92
HCI-012, days in culture: 143 | 2.27 | 2.44 | 2.4 | 2.56 | 1.52 | 0.467 | -0.00164 | 1.73
HCI-012, days in culture: 162 | 2.37 | 2.45 | 2.2 | 2.6 | 0.841 | 0.415 | -0.00213 | 3.12
HCI-012, days in culture: 201 | 3.14 | 2.4 | 1.89 | 1.81 | 1.95 | 0.307 | -0.207 | 1.71
HCI-015, days in culture: 172 | 2.77 | 1.86 | 2.64 | 1.3 | 0.847 | 0.199 | -0.107 | 2.29
HCI-015, days in culture: 191 | 2.28 | 1.35 | 1.72 | 1.06 | 1.12 | 0.29 | -0.000426 | 1.59
HCI-015, days in culture: 218 | 2.06 | 1.35 | 1.71 | 1.25 | 0.615 | -0.0786 | -0.35 | 1.94
HCI-019, days in culture: 110 | 1.64 | 1.35 | 1.18 | 1.2 | 0.642 | 1.1 | 0.00205 | 2.72
HCI-019, days in culture: 131 | 2.29 | 3.06 | 2.98 | 2.4 | 0.89 | 1.3 | 0.00628 | 3.35
HCI-019, days in culture: 152 | 2.88 | 2.16 | 1.69 | 1.52 | 0.878 | 1.16 | 0.00267 | 2.35

CCN1CCN(Cc2ccc(Nc3ncc(F)c(-c4cc(F)c5nc(C)n(C(C)C)c5c4)n3)nc2)CC1 [abemaciclib]
CTG-3D luminescence at 96 h
Settings | 12.5 pM | 0.00025 µM | 0.005 µM | 0.1 µM | 1 µM | 10 µM | 100 µM | 625 fM
HCI-005.E2 | 1.99 | 2.57 | 2.09 | 1.96 | 1.61 | 1.43 | 0.00876 | 2.12
HCI-011.E2 | 1.49 | 1.5 | 1.57 | 1.9 | 1.52 | 1.04 | 0.00535 | 1.6

CTG-3D luminescence at 96 h
Settings | 12.5 pM | 0.00025 µM | 0.005 µM | 0.1 µM | 1 µM | 10 µM | 100 µM | 625 fM
HCI-008, days in culture: 228 | 1.42 | 1.63 | 1.38 | 1.89 | 1.86 | 1.53 | 0.0137 | 1.79
HCI-008, days in culture: 244 | 1.57 | 2.05 | 1.87 | 2.13 | 2.12 | 2.51 | 0.0231 | 2.52
HCI-010, days in culture: 52 | 1.92 | 2.34 | 2.3 | 2.47 | 1.99 | 0.77 | 0.0133 | 2.09
HCI-010, days in culture: 65 | 1.68 | 1.83 | 2.02 | 1.78 | 1.2 | 0.0257 | 0.00729 | 1.65
HCI-010, days in culture: 103 | 3.48 | 3.18 | 3.28 | 3.44 | 3.5 | 2.6 | 0.0301 | 2.98
HCI-011.E2, days in culture: 74 | 1.84 | 2.83 | 2.59 | 2.7 | 2.61 | 1.72 | 0.00196 | 2.79
HCI-012, days in culture: 143 | 2.22 | 2.41 | 2.02 | 2.72 | 1.59 | 0.427 | 0.0151 | 1.94
HCI-012, days in culture: 162 | 2.88 | 2.54 | 2.02 | 3.34 | 1.83 | 1.5 | 0.0215 | 3.16
HCI-012, days in culture: 201 | 2.81 | 2.22 | 1.75 | 1.73 | 2.31 | 1.47 | 0.0218 | 1.65
HCI-015, days in culture: 172 | 2.01 | 1.6 | 1.87 | 1.21 | 1.52 | 1.06 | 0.0103 | 1.19
HCI-015, days in culture: 191 | 1.17 | 1.4 | 1.23 | 1.15 | 1.45 | 1.09 | 0.0126 | 1.07
HCI-015, days in culture: 218 | 2.17 | 1.65 | 1.7 | 1.63 | 1.48 | 1.23 | 0.0151 | 1.79
HCI-019, days in culture: 110 | 2.26 | 1.44 | 1.96 | 2.43 | 1.42 | 0.433 | 0.016 | 2.64
HCI-019, days in culture: 131 | 2.45 | 3.28 | 2.99 | 4.2 | 2.75 | 1.9 | 0.0216 | 2.87
HCI-019, days in culture: 152 | 3.44 | 2.78 | 2.45 | 2.58 | 2.13 | 0.0403 | 0.012 | 2.48

— the supplement of paper PMC8882468
